{
  "source": "paper PMC6324813",
  "about": "“Biological evaluation of isoflavonoids from Genista halacsyi using estrogen-target cells: Activities of glucosides compared to aglycones” (PLoS ONE, 2019)",
  "key": {"[1]": {"test_system": "RAW 264.7 cells", "test": "Differentiation of RAW 264.7 cells to osteoclasts, TRAP activity", "format": "cell-based, mouse", "conditions": "RANKL 50 ng/ml + E2 1 nM or compound 1 μM; 3 days; DF plus vehicle = 100", "method": "Clones of RAW 264.7 cells competent to differentiate to multinuclear osteoclasts upon activation with RANKL provide valuable information on the regulation of osteoclast differentiation. Differentiation-competent RAW cells (ATCC TIB-71) were seeded in 96-well plates at a density of 9,600 cells per well. The cells were plated in the presence of test compounds or compound diluent (0.1% DMSO) and, 4 h after plating, were exposed for 3 days to 50 ng/ml RANKL or to plain medium. Osteoclastic differentiation was assessed via induction of Tartrate-Resistant Acid Phosphatase (TRAP) activity. The cells were washed with PBS and incubated with 25μl lysis buffer (0.4 M NaCl, 25 mM Hepes pH 7.7, 1.5 mM MgCl2, 0.2 mM EDTA, 1% NP40) for 5 min on ice."}, "[2]": {"test_system": "MCF-7 cells", "test": "MCF-7 cell proliferation (MTT)", "format": "cell-based, human", "conditions": "for activation at 1 µM: Homo sapiens, MCF7, 72 h, read-out: Induction of cell proliferation (MCF-7 cells) Agonism at 1μΜ (% of 0.1nM E2)", "method": "Test compound effects on the proliferation of MCF-7 and MDA-MB-231 cells were assessed as previously described."}, "[3]": {"test_system": "Ishikawa cells", "test": "Induction of AlkP expression in Ishikawa cells", "format": "cell-based, human", "conditions": "for EC (25% of 0.1 nM E2 effect) / activation at 1 µM: 72 h; for EC (25% of 0.1 nM E2 effect): concentration required to achieve 25% of the effect of 0.1 nM E2, read-out: Induction of Alkaline Phosphatase Expression (Ishikawa cells) EC25E2; for activation at 1 µM: read-out: Induction of AlkP expression (Ishikawa cells) Agonism at 1μΜ (% of 0.1nM E2)", "method": "Induction of AlkP expression of Ishikawa cells is considered as a reliable in vitro measure of estrogenic activity. Assessment of AlkP expression in Ishikawa cells was carried as already described. Briefly, the cells were plated in 96-well plates at a density of 12,000 cells per well in phenol-red-free MEM supplemented with 1 μg/mL insulin and 5% DCC-FBS. […] Data on the dependence of AlkP activity on isoflavonoid concentration were curve fitted using SigmaPlot10 (SPSS Inc) and the numerical data of curve fitting were used to determine AUC as described above, using for the calculation of AUC of a particular AlkP response the very same concentration used for the respective luciferase response. The AUC of AlkP responses of the isoflavonoids of a group were expressed as % of the AUC of the luciferase response of the respective archetypal isoflavone."}, "[4]": {"test_system": "HT22 cells", "test": "Glutamate toxicity (oxytosis) of HT22 neuronal cells (MTT)", "conditions": "for viability of HT22 cells under normal growth conditions compared to vehicle-treated cells: no glutamate", "method": "Glutamate-challenged HT22 cells suffer oxidative stress-induced cell death (oxytosis) within 24 h due to glutathione depletion and consequent massive accumulation of ROS [42]. The efficacy of test compounds to prevent oxytosis of HT22 cells was assessed as already described. Briefly, HT22 cells were plated in 96-well flat bottom plates at a density of 4,000 cells per well in 100 μl of DMEM (low glucose) containing 2% FBS. 24 h after plating, the cells were treated with test compounds or compound diluent (0.1% DMSO) and then challenged with 5 mM glutamate for 24 h. […] Non-challenged cells served to assess test compound effects on cell viability, whereas challenged cells served to assess the neuroprotective activity of test compounds."}, "[5]": {"test_system": "RAW 264.7 cells", "conditions": "cited from earlier work"}, "[6]": {"test_system": "TNFα mRNA", "conditions": "cited from earlier work"}, "[7]": {"test_system": "HT22 cells", "conditions": "cited from earlier work; for prevention of oxytosis of glutamate-challenged HT22 cells: 1 μM estradiol or 2.5 μM genistein"}, "[8]": {"test_system": "TNFα mRNA", "test": "LPS-induced TNFα mRNA expression in RAW 264.7 cells (RT-qPCR)", "format": "cell-based, mouse", "method": "To assess TNFα mRNA expression, RAW 264.7 cells were plated in 6-well plates in alpha-MEM medium supplemented with 10% DCC-FBS, at a density of 300,000 cells per well, maintained in culture for 72 h and then exposed to vehicle (0.3% DMSO) or 3 μΜ test compound for 20 min or 24 h prior to stimulation with 100 ng/ml lipopolysaccharide (Sigma L4391) for 1 h. Extraction of total RNA, reverse transcription (RT) and quantitative PCR (qPCR) analysis of mRNA expression levels were performed as previously described. Relative gene expression levels were calculated by the comparative Ct method using the formula 2^(-ΔCt). Tumor necrosis factor alpha (TNFα) mRNA levels were normalized to the respective levels of […] (GAPDH). Test compound effects on the relative number of viable cells were assessed using crystal violet and a Safire II microplate reader (Tecan) as previously described. […] The following primers were used: […]"}, "[9]": {"test_system": "MDA-MB-231 cells", "test": "MDA-MB-231 cell proliferation (MTT)", "format": "cell-based", "conditions": "0.1 nM estradiol, 1 μM ICI182,780, isoflavonoids 1 μM", "method": "Test compound effects on the proliferation of MCF-7 and MDA-MB-231 cells were assessed as previously described. […] Relative numbers of cells exposed to estradiol or to ICI182,780 acted as positive and negative control, respectively."}, "[10]": {"molecular_target": "ERβ (Homo sapiens, UniProt Q92731)", "sequence (Q92731 whole entry)": "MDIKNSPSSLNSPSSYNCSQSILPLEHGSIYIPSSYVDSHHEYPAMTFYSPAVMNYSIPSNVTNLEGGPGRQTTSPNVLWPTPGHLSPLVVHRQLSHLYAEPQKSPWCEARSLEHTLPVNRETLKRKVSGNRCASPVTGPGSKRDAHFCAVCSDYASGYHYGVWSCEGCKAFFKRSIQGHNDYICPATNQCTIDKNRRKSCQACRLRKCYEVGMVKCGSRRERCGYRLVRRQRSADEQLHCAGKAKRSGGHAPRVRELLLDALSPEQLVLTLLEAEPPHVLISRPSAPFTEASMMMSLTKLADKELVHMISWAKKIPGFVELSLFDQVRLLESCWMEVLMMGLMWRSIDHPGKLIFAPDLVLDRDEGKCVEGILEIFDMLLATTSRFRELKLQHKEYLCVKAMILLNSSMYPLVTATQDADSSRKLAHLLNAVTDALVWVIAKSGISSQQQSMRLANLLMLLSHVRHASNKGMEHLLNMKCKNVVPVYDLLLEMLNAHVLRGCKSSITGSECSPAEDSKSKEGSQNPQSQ", "test": "ERE-dependent luciferase gene transcription in HEK:ERβ cells", "format": "cell-based", "set-up": "expressed in transfected cells; host or cells: HEK-293 (HEK:ERβ clone, with pERE-tk-Luciferase)", "conditions": "compounds 1 μM, estradiol 0.1 nM; 18 h", "method": "Assessment of ER/ERE-dependent luciferase gene transcription in MCF-7:D5L (express ERα) and HEK:ERβ cells (express ERβ) and determination of ER transcriptional agonism was carried as already described. Briefly, the cells were plated in 96-well plates at a density of 12,000 cells per well in phenol-red-free MEM (MCF-7:D5L cells) or phenol-red-free DMEM (HEK:ERβ cells) supplemented with 1 μg/mL insulin and 5% DCC-FBS. […] The AUC of the isoflavonoids of each group were then expressed as % of the AUC of the respective archetypal isoflavone. Since AUC data combine the efficacy as well as the potency of cell response into a single parameter, the %AUC data were considered here as a more reliable measure of relative ER/ERE-dependent luciferase expression of the test compounds."}, "[11]": {"test_system": "MC3T3-E1 cells", "test": "Mineralization of MC3T3-E1 cells, Alizarin red staining", "format": "cell-based, mouse", "conditions": "DF + E2 1 nM or compound 1 μM; 21 days; DF plus vehicle = 100", "method": "(§1) Differentiation of MC3T3-E1 cells to osteoblasts has been extensively used to screen for compounds that may promote bone formation. Differentiation of MC3T3-E1 cells was carried out in 96-well plates using 3,300 cells per well and was assessed via induction of, i) Alkaline Phosphatase (AlkP) activity after 6 days of treatment and, ii) mineralization of extracellular matrix after 21 days of treatment. Briefly, 24 h after plating, the cells were incubated with test compounds or vehicle i.e. the compound diluent (0.1% DMSO) and then exposed for 6 days to differentiation medium in presence or absence of differentiation factors (cf. Cell culture) with a change to fresh compounds and medium in 3 days. AlkP activity was assessed at 405 nm in a Safire II microplate reader using as substrate p-nitrophenyl-phosphate (pNPP, Sigma-Aldrich) as already described. Mineralization of MC3T3 cells was assessed by staining with Alizarin red (Fluka). Cells were cultured and treated as described above for 21 days, with media and test compounds changed every 3 days, and calcium phosphate deposition was assayed as described by Gregory et al.. Briefly, the cells were washed twice with PBS and fixed with 70% ethanol for 15 min on ice. The cells were stained with Alizarin red solution (40 mM, pH 4.2) for 30 min at room temperature, washed twice with distilled water and once with PBS. The dye from the stained mineral deposits was extracted with 33% acetic acid and the absorbance was measured at 405 nm using a Safire II microplate reader (Tecan)."}, "[12]": {"test_system": "MC3T3-E1 cells", "test": "Differentiation of MC3T3-E1 cells to osteoblasts, AlkP activity", "format": "cell-based, mouse", "conditions": "DF + E2 1 nM or compound 1 μM; 6 days; DF plus vehicle = 100", "method": "as §1, with “Differentiation” for “Differentiation of MC3T3-E1 cells to osteoblasts has been extensively used to screen for compounds that may promote bone formation. Differentiation”"}, "[13]": {"conditions": "1 nM estradiol or 1 μM compound"}, "[14]": {"conditions": "1 μM ICI182,780, isoflavonoids 1 μM"}},
  "data": [
    {"smiles": "O=c1c(-c2ccc(O)cc2)coc2cc(O)cc(O)c12", "note": "[Compound 3, genistein]", "values": [
      {"measurement": "Differentiation of RAW 267.4 cells, TRAP expression (%)", "setting": "[1]", "value": "106±11", "unit": "%"},
      {"measurement": "activation at 1 µM", "setting": "[2]", "value": "79 ± 6", "unit": "%"},
      {"measurement": "EC (25% of 0.1 nM E2 effect)", "setting": "[3]; Homo sapiens, Ishikawa", "value": "0.03 ± 0.01", "unit": "µM"},
      {"measurement": "activation at 1 µM", "setting": "[3]; Homo sapiens, Ishikawa", "value": "110 ± 11", "unit": "%"},
      {"measurement": "EC50", "setting": "[3]; Homo sapiens, Ishikawa, read-out: Induction of Alkaline Phosphatase Expression (Ishikawa cells) EC50E2", "value": "50 ± 20", "unit": "nM"},
      {"measurement": "viability of HT22 cells under normal growth conditions compared to vehicle-treated cells", "setting": "[4]; [13]", "value": "not different"},
      {"measurement": "viability of glutamate-treated HT22 cells (% of glutamate-free cells)", "setting": "[4]; 5 mM glutamate 24 h, 1 nM estradiol or 1 μM compound", "value": "≤ 40", "unit": "%"},
      {"measurement": "concentrations that inhibit osteoclastic differentiation of RAW 264.7 cells", "setting": "[5]", "value": "≥ 10", "unit": "µM"},
      {"measurement": "inhibition of TNFα gene transcription in RAW 264.7 cells", "setting": "[6]; pre-incubation with low micromolar concentrations", "value": "30–40%"},
      {"measurement": "prevention of oxytosis of glutamate-challenged HT22 cells", "setting": "[7]", "value": "unable to prevent oxytosis"},
      {"measurement": "reduction of LPS induction of TNFα mRNA expression", "setting": "[8]; 3 μM, pre-treatment 24 h, LPS 100 ng/ml 1 h", "value": 15, "unit": "%"},
      {"measurement": "suppression of LPS-stimulated TNFα mRNA expression", "setting": "[8]; pre-incubated with 3 μM isoflavonoid prior to the stimulation", "value": "ineffective"}
    ]},
    {"smiles": "C[C@]12CC[C@@H]3c4ccc(O)cc4CC[C@H]3[C@@H]1CC[C@@H]2O", "note": "[Estradiol, 17β-estradiol, reference compound]", "values": [
      {"measurement": "Differentiation of RAW 267.4 cells, TRAP expression (%)", "setting": "[1]", "value": "105±3", "unit": "%"},
      {"measurement": "induction of proliferation of MCF-7 cells", "setting": "[2]; 0.1 nM estradiol, vs vehicle", "value": 1.80, "unit": "fold"},
      {"measurement": "activation at 1 µM", "setting": "[2]", "value": "100 ± 19", "unit": "%"},
      {"measurement": "induction of AlkP expression", "setting": "[3]; 0.1 nM estradiol, vs vehicle", "value": 3.68, "unit": "fold"},
      {"measurement": "EC (25% of 0.1 nM E2 effect)", "setting": "[3]; Homo sapiens, Ishikawa", "value": "9.83 ± 0.44", "unit": "µM"},
      {"measurement": "activation at 1 µM", "setting": "[3]; Homo sapiens, Ishikawa", "value": "100 ± 9", "unit": "%"},
      {"measurement": "proliferation of MDA-MB-231 cells", "setting": "[9]", "value": "not affected"},
      {"measurement": "viability of HT22 cells under normal growth conditions compared to vehicle-treated cells", "setting": "[4]; [13]", "value": "not different"},
      {"measurement": "viability at 0.001 µM", "setting": "[4]; Mus musculus, HT-22, 24 h, read-out: viability of glutamate-treated HT22 cells (% of glutamate-free cells)", "value": "≤ 40", "unit": "%"},
      {"measurement": "concentrations that inhibit osteoclastic differentiation of RAW 264.7 cells", "setting": "[5]", "value": "≥ 10", "unit": "µM"},
      {"measurement": "suppression of TNFα mRNA expression and cytokine release after LPS", "setting": "[6]; estrogen-free RAW 264.7 cells", "value": "unable to suppress"},
      {"measurement": "Induction of luciferase gene transcription through ERβ, HEK:ERβ cells, Agonism at 1μΜ (% of 0.1nM E2)", "setting": "[10]", "value": "100 ± 12 % of 0.1nM E2"},
      {"measurement": "Differentiation of MC3T3-E1 cells, Alizarin red staining (%)", "setting": "[11]", "value": "134±7", "unit": "%"},
      {"measurement": "prevention of oxytosis of glutamate-challenged HT22 cells", "setting": "[7]", "value": "unable to prevent oxytosis"},
      {"measurement": "IC50", "setting": "[7]; read-out: IC50, ER-dependent protection of glutamate-challenged HT22 cells from oxytosis", "value": "> 800", "unit": "nM"},
      {"measurement": "Differentiation of MC3T3-E1 cells, AlkP expression (%)", "setting": "[12]", "value": "118±2", "unit": "%"}
    ]},
    {"smiles": "C[C@]12CC[C@@H]3c4ccc(O)cc4C[C@@H](CCCCCCCCC[S+]([O-])CCCC(F)(F)C(F)(F)F)[C@H]3[C@@H]1CC[C@@H]2O", "note": "(stereo partly shown) [ICI182,780, reference compound]", "values": [
      {"measurement": "suppression of isoflavonoid cell proliferation effects", "setting": "[2]; [14]", "value": "fully suppressed"},
      {"measurement": "suppression of isoflavonoid-induced AlkP expression", "setting": "[3]; [14]", "value": "fully suppressed"},
      {"measurement": "proliferation of MDA-MB-231 cells", "setting": "[9]", "value": "not affected"}
    ]}
  ]
}
